Test results from the NIST ThermoML archive (doi:10.1016/j.jct.2015.08.033).

Assay: mn = molality of the nth substance listed, in mol/kg
Conditions: 100 kPa, Liquid; for speed of sound: Frequency=3 MHz, Sing-around technique in a fixed-path interferometer; for mass density: Vibrating tube method

O=S(=O)([O-])C(F)(F)F.O=S(=O)([O-])C(F)(F)F.[Ca+2] [calcium trifluoromethanesulfonate] + CN(C)C=O
Conditions | mass density, 298.15 K [kg/m3] | mass density, 303.15 K [kg/m3] | mass density, 308.15 K [kg/m3] | mass density, 313.15 K [kg/m3] | mass density, 318.15 K [kg/m3] | speed of sound, 298.15 K [m/s] | speed of sound, 303.15 K [m/s] | speed of sound, 308.15 K [m/s] | speed of sound, 313.15 K [m/s] | speed of sound, 318.15 K [m/s]
m1 = 0.01106 | 946.239 | 941.472 | 936.692 | 931.892 | 927.09 | 1457.3 | 1438.1 | 1418.8 | 1399.6 | 1380.3
m1 = 0.01878 | 947.845 | 943.075 | 938.305 | 933.505 | 928.705 | 1457.4 | 1438.2 | 1418.9 | 1399.7 | 1380.6
m1 = 0.02772 | 949.696 | 944.925 | 940.169 | 935.363 | 930.568 | 1457.4 | 1438.3 | 1419 | 1399.9 | 1380.8
m1 = 0.03952 | 952.113 | 947.355 | 942.581 | 937.793 | 932.985 | 1457.4 | 1438.3 | 1419.2 | 1400.1 | 1381.1
m1 = 0.05628 | 955.509 | 950.747 | 945.976 | 941.193 | 936.398 | 1457.5 | 1438.3 | 1419.2 | 1400.2 | 1381.2
m1 = 0.06961 | 958.2 | 953.444 | 948.677 | 943.893 | 939.103 | 1457.3 | 1438.3 | 1419.3 | 1400.3 | 1381.4
m1 = 0.08918 | 962.098 | 957.344 | 952.579 | 947.802 | 943.015 | 1457.1 | 1438.2 | 1419.2 | 1400.3 | 1381.5
m1 = 0.1114 | 966.493 | 961.744 | 956.98 | 952.205 | 947.419 | 1456.8 | 1438 | 1419.1 | 1400.3 | 1381.6
m1 = 0.1344 | 971.012 | 966.262 | 961.501 | 956.728 | 951.947 | 1456.6 | 1437.8 | 1419 | 1400.3 | 1381.6
m1 = 0.1671 | 977.356 | 972.601 | 967.839 | 963.068 | 958.29 | 1456.4 | 1437.6 | 1418.8 | 1400.2 | 1381.6
